ChEMBL document CHEMBL1201862, “PubChem BioAssay data set” (2004)
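Cultured in 96-well plates, cells were exposed to test compound for 48 hours across five concentrations. At the GI50, growth is halved.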 Calls of active or inactive are those of the source. Rule as the data show it: active = GI50 up to about 1.1 µM and inactive = higher.

How the values were obtained:
Assay in all cases: NCI tumour cell line growth inhibition, 48 h
786-0 = tested on: 786-0
A498 = tested on: A498
ACHN = tested on: ACHN
DU-145 = tested on: DU-145
K562 = tested on: K562
KM12 = tested on: KM12
LOX IMVI = tested on: LOX IMVI
MDA-MB-231 = tested on: MDA-MB-231
NCI-H23 = tested on: NCI-H23
NCI/ADR-RES = tested on: NCI/ADR-RES
OVCAR-3 = tested on: OVCAR-3
OVCAR-4 = tested on: OVCAR-4
OVCAR-5 = tested on: OVCAR-5
OVCAR-8 = tested on: OVCAR-8
PC-3 = tested on: PC-3
SF-268 = tested on: SF-268
SK-MEL-5 = tested on: SK-MEL-5
SK-OV-3 = tested on: SK-OV-3
SR = tested on: SR
UO-31 = tested on: UO-31

Structure (SMILES) | GI50 (786-0) | GI50 (A498) | GI50 (ACHN) | GI50 (DU-145) | GI50 (K562) | GI50 (KM12) | GI50 (LOX IMVI) | GI50 (MDA-MB-231) | GI50 (NCI-H23) | GI50 (NCI/ADR-RES) | GI50 (OVCAR-3) | GI50 (OVCAR-4) | GI50 (OVCAR-5) | GI50 (OVCAR-8) | GI50 (PC-3) | GI50 (SF-268) | GI50 (SK-MEL-5) | GI50 (SK-OV-3) | GI50 (SR) | GI50 (UO-31)
CCC(=O)Nc1cccc(/N=C/c2ccc(OC(=O)/C=C\c3ccccc3)cc2)c1 | 65.9 µM (inactive) | > 75 µM (inactive) | 39 µM (inactive) | 15.5 µM (inactive) | 39.3 µM (inactive) | 49.2 µM (inactive) | 40.6 µM (inactive) | 73.3 µM (inactive) | > 75 µM (inactive) | > 75 µM (inactive) | 43.7 µM (inactive) | 45.4 µM (inactive) | > 75 µM (inactive) | > 75 µM (inactive) | 67 µM (inactive) | 36.7 µM (inactive) | 29.9 µM (inactive) | > 75 µM (inactive) | 54.7 µM (inactive) | 51.2 µM (inactive)
COC(=O)CN1c2nc(C#N)c(C#N)nc2N(CC(=O)OC)c2nc(C#N)c(C#N)nc21 | 2.09 µM (inactive) | 15.3 µM (inactive) | 1.59 µM (inactive) | 1.43 µM (inactive) | 1.51 µM (inactive) | 8.22 µM (inactive) | 2.2 µM (inactive) | 6.73 µM (inactive) | 2.99 µM (inactive) | 18.7 µM (inactive) | 2.92 µM (inactive) | 3.1 µM (inactive) | 8 µM (inactive) | 2.37 µM (inactive) | 4.15 µM (inactive) | 4.05 µM (inactive) | 5.4 µM (inactive) | 15.3 µM (inactive) | 2 µM (inactive) | 1.69 µM (inactive)
CCC1(O)C(=O)OCc2c1cc1n(c2=O)Cc2cc3ccc(C=O)cc3nc2-1 (stereo not given) | 0.608 µM (active) | 4.06 µM (inactive) | 0.713 µM (active) | 0.466 µM (active) | 1.91 µM (inactive) | > 86.5 µM (inactive) | 0.472 µM (active) | 22.4 µM (inactive) | 2.07 µM (inactive) | 0.574 µM (active) | 4.51 µM (inactive) | 3.33 µM (inactive) | 7.29 µM (inactive) | 1.96 µM (inactive) | 5.53 µM (inactive) | 0.321 µM (active) | 1.83 µM (inactive) | 2.2 µM (inactive) | < 0.013 µM (active) | 1.83 µM (inactive)
Clc1ccc(Nc2ncco2)cc1Cl | > 10 µM (inactive) | > 10 µM (inactive) | > 10 µM (inactive) | > 10 µM (inactive) | > 10 µM (inactive) | > 10 µM (inactive) | > 10 µM (inactive) | > 10 µM (inactive) | > 10 µM (inactive) | > 10 µM (inactive) | > 10 µM (inactive) | > 10 µM (inactive) | > 10 µM (inactive) | > 10 µM (inactive) | > 10 µM (inactive) | > 10 µM (inactive) | > 10 µM (inactive) | > 10 µM (inactive) | > 10 µM (inactive) | > 10 µM (inactive)
C[Si](C)(C)C1=C([Si](C)(C)C)C(Cl)(Cl)C1=O | 2.58 µM (inactive) | 15.5 µM (inactive) | 1.74 µM (inactive) | 10.4 µM (inactive) | 0.879 µM (active) | 6.17 µM (inactive) | 1.58 µM (inactive) | 2.8 µM (inactive) | 4.26 µM (inactive) | 3.42 µM (inactive) | 2.18 µM (inactive) | 3.28 µM (inactive) | 7.28 µM (inactive) | 2.23 µM (inactive) | 3.76 µM (inactive) | 5.94 µM (inactive) | 1.98 µM (inactive) | 22.6 µM (inactive) | 1.93 µM (inactive) | 2.34 µM (inactive)
NC(=O)C1CCCN1C(=O)N(CCCl)N=O (stereo not given) | > 100 µM (inactive) | > 100 µM (inactive) | > 100 µM (inactive) | > 100 µM (inactive) | > 100 µM (inactive) | > 100 µM (inactive) | > 100 µM (inactive) | > 100 µM (inactive) | > 100 µM (inactive) | > 100 µM (inactive) | > 100 µM (inactive) | > 100 µM (inactive) | 54.5 µM (inactive) | > 100 µM (inactive) | > 100 µM (inactive) | 74.1 µM (inactive) | > 100 µM (inactive) | > 100 µM (inactive) | > 100 µM (inactive) | > 100 µM (inactive)
CC1(C)O[C@H]2OC3CCC(=O)CC3(O)[C@H]2O1 (stereo not given in full) | > 100 µM (inactive) | > 100 µM (inactive) | > 100 µM (inactive) | > 100 µM (inactive) | > 100 µM (inactive) | > 100 µM (inactive) | > 100 µM (inactive) | > 100 µM (inactive) | > 100 µM (inactive) | > 100 µM (inactive) | > 100 µM (inactive) | > 100 µM (inactive) | > 100 µM (inactive) | > 100 µM (inactive) | > 100 µM (inactive) | > 100 µM (inactive) | > 100 µM (inactive) | > 100 µM (inactive) | > 100 µM (inactive) | > 100 µM (inactive)
CCOC(=O)/C=C(\C(=O)OCC)n1ccc(=O)n(Cc2cn(COCCOC(C)=O)nn2)c1=O | 15.7 µM (inactive) | > 54.3 µM (inactive) | 7.05 µM (inactive) | 38.8 µM (inactive) | 24 µM (inactive) | 29.6 µM (inactive) | 17.9 µM (inactive) | 20.2 µM (inactive) | 17.7 µM (inactive) | 20.3 µM (inactive) | 23.2 µM (inactive) | 19.5 µM (inactive) | 23.4 µM (inactive) | 16.3 µM (inactive) | 20.3 µM (inactive) | 26.1 µM (inactive) | 21.5 µM (inactive) | > 100 µM (inactive) | 21 µM (inactive) | 17.7 µM (inactive)
O=C1C(Cl)=C(N2CCN(c3ncccn3)CC2)C(=O)c2c(O)ccc(O)c21 | 1.6 µM (inactive) | 2.9 µM (inactive) | 2.43 µM (inactive) | 4.34 µM (inactive) | 1.45 µM (inactive) | 4.43 µM (inactive) | 1.72 µM (inactive) | 2.15 µM (inactive) | 2.27 µM (inactive) | 3.01 µM (inactive) | 1.72 µM (inactive) | 1.98 µM (inactive) | 7.91 µM (inactive) | 2.18 µM (inactive) | 3.1 µM (inactive) | 3.15 µM (inactive) | 2.17 µM (inactive) | 24 µM (inactive) | 0.265 µM (active) | 2.07 µM (inactive)
CC(=O)Oc1ccc(/C=C/C(=O)OCCCOC(=O)/C=C/c2ccc(OC(C)=O)c(OC(C)=O)c2)cc1OC(C)=O | 93.1 µM (inactive) | > 100 µM (inactive) | > 100 µM (inactive) | > 100 µM (inactive) | > 100 µM (inactive) | > 100 µM (inactive) | > 100 µM (inactive) | > 100 µM (inactive) | > 100 µM (inactive) | > 100 µM (inactive) | > 100 µM (inactive) | > 100 µM (inactive) | > 100 µM (inactive) | > 100 µM (inactive) | > 100 µM (inactive) | > 100 µM (inactive) | > 100 µM (inactive) | > 100 µM (inactive) | > 100 µM (inactive) | > 100 µM (inactive)
